Measurements taken from ChEMBL document CHEMBL1133985, “Synthesis of diaminobutane derivatives as potent Ca(2+)-permeable AMPA receptor antagonists” (Bioorg Med Chem Lett, 2001).

Tests used:
Rattus norvegicus = species: Rattus norvegicus; details: dose 3 mg/kg; route intravenous
Description: Change in systolic blood pressure before and after intravenous administration of 3 mg/kg dose in rats

[1] = molecular target: Glutamate receptor ionotropic, AMPA (Rattus norvegicus) (UniProt P19491+P19492+P19493+P19490); experiment: Antagonistic activity against Ca++permeable Ionotropic glutamate receptor AMPA as concentration of compound that reduces the inward current induced by kainate by 50% in Xenopus oocytes; assay type: functional, cell-based; details: Oocyte; concentration not given here
[2] = molecular target: Glutamate receptor ionotropic, AMPA (Rattus norvegicus, UniProt P19490+P19491+P19492+P19493)
[3] = Inhibitory activity against [Ca(2+)]-impermeable Ionotropic glutamate receptor AMPA was determined; details: concentration not given here

Compound | inhibition [1] [%] | IC50 [2] [nM] | Delta SBP (Rattus norvegicus) [mmHg] | inhibition [3] [%]
O=C(Cc1cccc2ccccc12)N1CCC(CNCCCCNCCN2CCCCC2)CC1 | – | – | 5 | –
O=C(Cc1cccc2ccccc12)N1CCC(CNCCCCNCC2CCCCC2)CC1 | – | 250 | 11 | 4.4
O=C(Cc1cccc2ccccc12)N1CCC(CNCCCCNCCCO)CC1 | 44 | – | -6 | –
O=C(Cc1cccc2ccccc12)N1CCC(CNCCCCN2CCCCC2)CC1 | – | 390 | 4 | –
O=C(Cc1cccc2ccccc12)N1CCC(CNCCCCNCC2CCOCC2)CC1 | 35 | – | -22 | –
O=C(Cc1cccc2ccccc12)N1CCC(CNCCCCCCC2CCCCC2)CC1 | 1 | – | -50 | –
O=C(Cc1cccc2ccccc12)N1CCC(CCCCCCNCC2CCCCC2)CC1 | 42 | – | -35 | –

More lines, main results first:

inhibition [1] [%] | IC50 [2] [nM] | Compound | Delta SBP (Rattus norvegicus) [mmHg] | inhibition [3] [%]
54 | – | NCCCCNCC1CCN(C(=O)Cc2cccc3ccccc23)CC1 | -53 | –
– | 730 | CC(C)NCCCCNCC1CCN(C(=O)Cc2cccc3ccccc23)CC1 | 10 | –
– | 740 | CCCNCCCCNCC1CCN(C(=O)Cc2cccc3ccccc23)CC1 | 9 | –
– | 530 | CN(C)CCCCNCC1CCN(C(=O)Cc2cccc3ccccc23)CC1 | 12 | –
– | 790 | CC(C)CNCCCCNCC1CCN(C(=O)Cc2cccc3ccccc23)CC1 | 7 | –
